Test system: patients with refractory metastatic colorectal cancer (mCRC)
Assay: PFS, OS and disease control in the training (evaluation) cohort of refractory mCRC patients receiving TAS-102 (n=52, Japan), by baseline characteristics, SNP genotype and toxicity
Format: in vivo, human
Conditions: for Overall Survival Median, months / Progression-Free Survival Median, months / Overall Survival HR / Progression-Free Survival HR / HR for OS / HR for PFS: evaluation cohort
Procedure: All patients underwent the treatment in salvage-line setting. […]
(§1) Genomic DNA was extracted from peripheral whole blood in patients of all cohorts using the QIAmp Kit (Qiagen, Valencia, Calif., USA) according to the manufacturer's protocol (www.qiagen.com). The candidate SNPs were genotyped using PCR-based direct DNA sequence analysis by ABI 3100A Capillary Genetic Analyzer and Sequencing Scanner v1.0 (Applied Biosystems). Amplification of extracted DNA was carried out using both forward and reverse primers for each gene polymorphism as shown in Table 1. […] The investigators analyzing SNPs were blinded to the clinical data of the study patients.
The primary endpoint in this study was progression-free survival (PFS), and the secondary endpoints were overall survival (OS) and disease control rate (DCR). PFS was calculated from the date of starting treatment to the first observation of disease progression or death from any cause. If a patient had no disease progression or death, PFS was censored at the date of last follow up. OS was calculated from the date of starting treatment until the date of death from any cause or the date of the last follow-up, at which point OS was censored. The disease control rate (DCR) was defined as the proportion of patients who achieved a stable disease (SD) or […] according to RECISTv1.1. Chi-square test was used to examine the difference in baseline patient characteristics among the three cohorts. Allelic distribution of all SNPs by ethnicity for deviation from Hardy-Weinberg equilibrium and the allelic frequencies of SNPs were tested using the Chi-square tests with one degree of freedom. The associations between candidate SNPs and disease control, and toxicities were examined using contingency tables and Fisher's exact test. The associations of SNPs with PFS and OS were analysed using Kaplan-Meier curves and the log-rank test. Because the true mode of inheritance of candidate SNPs was not established yet, a codominant or dominant genetic model if appropriate was considered.
All patients underwent the treatment in salvage-line setting. […] In all patients, adverse events were graded according to the Common Terminology Criteria for Adverse Events, version 4.0. […]
as §1, with “tested” for “genotyped”, “Biosystems).” for “Biosystems). Amplification of extracted DNA was carried out using both forward and reverse primers for each gene polymorphism as shown in Table 1.”, “data.” for “data of the study patients.”
The primary endpoint in this study was progression-free survival (PFS), and the secondary endpoints were overall survival (OS) and disease control rate (DCR).

[1] = Performance status ECOG 1 vs ECOG 0, univariate
[2] = Peritoneal No vs Yes, univariate
[3] = Pre-chemo numbers ≥4 vs <4, univariate
[4] = Primary tumor resection No vs Yes, univariate
[5] = Prior EGFR No vs Yes, univariate
[6] = Prior REGORA No vs Yes, univariate
[7] = Prior bev No vs Yes, univariate
[8] = Tumor site Left vs Right, univariate
[9] = XRCC3 rs861539 G/A vs G/G, univariate
[10] = p21 rs1059234 Any C vs T/T, multivariable
[11] = p21 rs1059234 Any C vs T/T, univariate
[12] = p21 rs1059234 C/C vs T/T, multivariable
[13] = p21 rs1059234 C/C vs T/T, univariate
[14] = p21 rs1059234 T/C vs T/T, multivariable
[15] = p21 rs1059234 T/C vs T/T, univariate
[16] = p21 rs1801270 A/C vs A/A, multivariable
[17] = p21 rs1801270 A/C vs A/A, univariate

Trifluridine/tipiracil [TAS-102] was tested, and the “Overall Survival Median, months” value (Number of metastases ≤2) was 8.3 months, the “Progression-Free Survival Median, months” value (Number of metastases ≤2) was 2.7 months and the “Overall Survival Median, months” value (Performance status ECOG 0) was 8.7 months. For the same substance, the “Progression-Free Survival Median, months” value (Performance status ECOG 0) was 2.9 months, the “Overall Survival Median, months” value (Performance status ECOG 1) was 7.2 months and the “Progression-Free Survival Median, months” value (Performance status ECOG 1) was 2.7 months. For the same substance, the “Overall Survival HR” value [1] was 1.42, the “Progression-Free Survival HR” value [1] was 1.06 and the “Overall Survival Median, months” value (Peritoneal No) was 8.3 months. The “Progression-Free Survival Median, months” value (Peritoneal No) was 2.3 months, the “Overall Survival HR” value [2] was 0.84 and the “Progression-Free Survival HR” value [2] was 1.48. For the same substance, the “Overall Survival Median, months” value (Peritoneal Yes) was 6.3 months, the “Progression-Free Survival Median, months” value (Peritoneal Yes) was 3.1 months and the “Overall Survival Median, months” value (Pre-chemo numbers <4) was 8.7 months. The “Progression-Free Survival Median, months” value (Pre-chemo numbers <4) was 3.0 months, the “Overall Survival Median, months” value (Pre-chemo numbers ≥4) was 6.3 months and the “Progression-Free Survival Median, months” value (Pre-chemo numbers ≥4) was 2.1 months. For the same substance, the “Overall Survival HR” value [3] was 2.48, the “Progression-Free Survival HR” value [3] was 1.73 and the “Overall Survival Median, months” value (Primary tumor resection No) was 8.1+ months. For the same substance, the “Progression-Free Survival Median, months” value (Primary tumor resection No) was 2.1 months, the “Overall Survival HR” value [4] was 1.72 and the “Progression-Free Survival HR” value [4] was 1.39. The “Overall Survival Median, months” value (Primary tumor resection Yes) was 8.1 months, the “Progression-Free Survival Median, months” value (Primary tumor resection Yes) was 3.0 months and the “Overall Survival Median, months” value (Prior EGFR No) was 15.6+ months. The “Progression-Free Survival Median, months” value (Prior EGFR No) was 3.7 months, the “Overall Survival HR” value [5] was 0.35 and the “Progression-Free Survival HR” value [5] was 0.49. For the same substance, the “Overall Survival Median, months” value (Prior EGFR Yes) was 6.3 months, the “Progression-Free Survival Median, months” value (Prior EGFR Yes) was 2.1 months and the “Overall Survival Median, months” value (Prior REGORA No) was 14.8+ months. The “Progression-Free Survival Median, months” value (Prior REGORA No) was 3.7 months, the “Overall Survival HR” value [6] was 0.50 and the “Progression-Free Survival HR” value [6] was 0.65. The “Overall Survival Median, months” value (Prior REGORA Yes) was 8.1 months, the “Progression-Free Survival Median, months” value (Prior REGORA Yes) was 2.1 months and the “Overall Survival Median, months” value (Prior bev No) was 4.1 months. For the same substance, the “Progression-Free Survival Median, months” value (Prior bev No) was 2.5 months, the “Overall Survival HR” value [7] was 3.43 and the “Progression-Free Survival HR” value [7] was 1.86. The “Overall Survival Median, months” value (Prior bev Yes) was 8.3 months, the “Progression-Free Survival Median, months” value (Prior bev Yes) was 2.9 months and the “Overall Survival Median, months” value (Sex Female) was 8.3 months. For the same substance, the “Progression-Free Survival Median, months” value (Sex Female) was 3.4 months, the “Overall Survival HR” value (Sex Female vs Male, univariate) was 0.47 and the “Progression-Free Survival HR” value (Sex Female vs Male, univariate) was 0.60. The “Overall Survival Median, months” value (Sex Male) was 4.9 months, the “Progression-Free Survival Median, months” value (Sex Male) was 2.1 months and the “Overall Survival Median, months” value (Tumor site Left) was 8.1 months. The “Progression-Free Survival Median, months” value (Tumor site Left) was 2.9 months, the “Overall Survival HR” value [8] was 0.97 and the “Progression-Free Survival HR” value [8] was 1.30. For the same substance, the “Overall Survival Median, months” value (Tumor site Right) was 8.7 months, the “Progression-Free Survival Median, months” value (Tumor site Right) was 3.3 months and the “HR for OS” value (XRCC3 rs861539, multivariable) was 0.31. For the same substance, the “HR for PFS” value (XRCC3 rs861539, multivariable) was 0.52, the “HR for OS” value [9] was 0.25 and the “HR for PFS” value [9] was 0.44. The “OS median, months (95% CI)” value (p21 rs1059234 Any C) was 12.4 (5.4, 15.6+) months, the “PFS median, months (95% CI)” value (p21 rs1059234 Any C) was 2.7 (2.1, 3.5) months and the “OS HR (95% CI)‡” value [10] was 0.50 (0.20, 1.25). For the same substance, the “PFS HR (95% CI) ‡” value [10] was 0.74 (0.37, 1.49), the “OS HR (95% CI)†” value [11] was 0.64 (0.27, 1.56) and the “PFS HR (95% CI) †” value [11] was 0.88 (0.44, 1.74). For the same substance, the “OS median, months (95% CI)” value (p21 rs1059234 C/C) was 6.3 (2.7, 10.7+) months, the “PFS median, months (95% CI)” value (p21 rs1059234 C/C) was 2.9 (1.6, 4.9) months and the “OS HR (95% CI)‡” value [12] was 0.67 (0.21, 2.12). For the same substance, the “PFS HR (95% CI) ‡” value [12] was 0.73 (0.30, 1.74), the “OS HR (95% CI)†” value [13] was 0.76 (0.25, 2.35) and the “PFS HR (95% CI) †” value [13] was 0.95 (0.42, 2.16). For the same substance, the “OS median, months (95% CI)” value (p21 rs1059234 T/C) was 12.4 (5.3, 15.6+) months, the “PFS median, months (95% CI)” value (p21 rs1059234 T/C) was 2.7 (2.1, 3.5) months and the “OS HR (95% CI)‡” value [14] was 0.42 (0.15, 1.19). For the same substance, the “PFS HR (95% CI) ‡” value [14] was 0.75 (0.35, 1.60), the “OS HR (95% CI)†” value [15] was 0.59 (0.22, 1.57) and the “PFS HR (95% CI) †” value [15] was 0.84 (0.40, 1.76). The “OS median, months (95% CI)” value (p21 rs1059234 T/T) was 7.2 (3.3, 8.7) months, the “PFS median, months (95% CI)” value (p21 rs1059234 T/T) was 3.3 (1.6, 4.1) months and the “OS median, months (95% CI)” value (p21 rs1801270 A/A) was 7.2 (3.3, 8.7) months. The “PFS median, months (95% CI)” value (p21 rs1801270 A/A) was 3.3 (1.6, 4.1) months, the “OS median, months (95% CI)” value (p21 rs1801270 A/C) was 12.4 (5.3, 15.6+) months and the “PFS median, months (95% CI)” value (p21 rs1801270 A/C) was 2.3 (1.8, 3.5) months. For the same substance, the “OS HR (95% CI)‡” value [16] was 0.39 (0.13, 1.11), the “PFS HR (95% CI) ‡” value [16] was 0.72 (0.34, 1.55) and the “OS HR (95% CI)†” value [17] was 0.53 (0.19, 1.47). The “PFS HR (95% CI) †” value [17] was 0.82 (0.39, 1.74), the “OS median, months (95% CI)” value (p21 rs1801270 Any C) was 12.4 (5.4, 15.6+) months and the “PFS median, months (95% CI)” value (p21 rs1801270 Any C) was 2.7 (2.1, 3.5) months. The “OS HR (95% CI)‡” value (p21 rs1801270 Any C vs A/A, multivariable) was 0.50 (0.20, 1.25).

Reference: patent publication US20190233884A1 (University of Southern California, priority 2016, published 2019)
